Data reported in DBAASP.
≈ marks a conversion by molar mass, not a printed value. One block for each compound: values may come before it.

Columns and labels:
Experiment in all cases: ≥ marks a high value that may be exact or a test limit, other limits are often not marked, values filed in µg/mL are converted to µM
Staphylococcus aureus = tested on: Staphylococcus aureus
[1] = tested on: Escherichia coli NCTC 10418
[2] = tested on: Staphylococcus aureus ATCC 6538
Bacillus cereus = tested on: Bacillus cereus
Escherichia coli = tested on: Escherichia coli
Lactococcus lactis = tested on: Lactococcus lactis
[3] = tested on: Salmonella typhimurium CIP 6062
[4] = tested on: Spiroplasma melliferum BC3
[5] = tested on: Pseudomonas aeruginosa ATCC 27853
Micrococcus luteus A270 = tested on: Micrococcus luteus A270
[6] = tested on: Staphylococcus aureus ATCC 25923
[7] = tested on: Acholeplasma laidlawii A-PG8
Escherichia coli K-12 = tested on: Escherichia coli K-12
[8] = tested on: Sinorhizobium meliloti 102F34
Bacillus megaterium KM = tested on: Bacillus megaterium KM
[9] = tested on: Cryptococcus neoformans Steroform B
Candida glabrata = tested on: Candida glabrata
[10] = tested on: Cryptococcus neoformans Steroform C
[11] = tested on: Cryptococcus neoformans Steroform A
Candida albicans A39 = tested on: Candida albicans A39
[12] = tested on: Staphylococcus haemolyticus
Bacillus sp. ATCC 14412 = tested on: Bacillus sp. ATCC 14412
Yarrowia lipolytica = tested on: Yarrowia lipolytica
Micrococcus luteus = tested on: Micrococcus luteus
[13] = tested on: Cryptococcus neoformans Steroform D
Candida krusei = tested on: Candida krusei
Bacillus megaterium = tested on: Bacillus megaterium
[14] = tested on: Aggregatibacter actinomycetemcomitans ATCC 29522
[15] = tested on: Staphylococcus epidermidis ATCC 12228
[16] = tested on: Cryptococcus neoformans ATCC 24067
[17] = tested on: Streptococcus sanguinis ATCC 10556
[18] = tested on: Candida krusei ATCC 20029
[19] = tested on: Cryptococcus gattii ATCC 32608
Cryptococcus neoformans = tested on: Cryptococcus neoformans
[20] = tested on: Acinetobacter baumannii ATCC 19606
[21] = tested on: Escherichia coli ATCC 10536
[22] = tested on: Clavibacter michiganensis subsp. michiganensis DSM 46294
[23] = tested on: Xanthomonas vesicatoria DSM 50861
[24] = tested on: Pseudomonas syringae pv. tomato DC3000
[25] = tested on: Pseudomonas corrugata DSM 7228
[26] = tested on: Staphylococcus aureus 90857
[27] = tested on: Pseudomonas syringae pv. syringae DSM 10604
[28] = tested on: Pectobacterium carotovorum subsp. carotovorum DSM 30168
[29] = tested on: Escherichia coli BL21(DE3)
Cupriavidus necator H16 = tested on: Cupriavidus necator H16
Escherichia coli JM109 = tested on: Escherichia coli JM109
[30] = tested on: Pseudomonas putida GPp104

SMILES: CC[C@H](C)[C@H](NC(=O)[C@H](CCCCN)NC(=O)[C@H](CCCCN)NC(=O)[C@H](CC(C)C)NC(=O)[C@H](CC(=O)O)NC(=O)[C@@H](NC(=O)[C@@H](N)Cc1ccccc1)C(C)C)C(=O)N[C@@H](C)C(=O)N[C@@H](CC(N)=O)C(=O)N[C@H](C(=O)N[C@H](C(=O)N[C@@H](CC(N)=O)C(=O)N[C@@H](CO)C(=O)N[C@H](C(=O)N[C@@H](Cc1ccccc1)C(N)=O)[C@@H](C)CC)[C@@H](C)CC)[C@@H](C)CC [FVDLKKIANIINSIF]
MIC (Staphylococcus aureus): 14.4 µM (≈ 25 µg/mL)
MIC [1]: ≥ 100 µM
MIC [2]: 3.1 µM (≈ 5.38 µg/mL)
MIC (Bacillus cereus): 14.4 µM (≈ 25 µg/mL)
MIC (Escherichia coli): > 100 µM
MIC (Lactococcus lactis): 14.4 µM (≈ 25 µg/mL)

SMILES: CC[C@H](C)[C@H](NC(=O)CNC(=O)[C@H](CO)NC(=O)[C@H](C)NC(=O)[C@@H](NC(=O)[C@H](CCCCN)NC(=O)[C@H](CO)NC(=O)[C@H](CCSC)NC(=O)[C@H](Cc1c[nH]c2ccccc12)NC(=O)CN)[C@@H](C)CC)C(=O)NCC(=O)N[C@H](C(=O)N[C@@H](Cc1ccccc1)C(=O)N[C@@H](CC(C)C)C(=O)N[C@@H](CO)C(=O)NCC(=O)N[C@@H](CCSC)C(=O)N[C@@H](CCC(N)=O)C(=O)N[C@@H](CCC(N)=O)C(N)=O)[C@@H](C)O [GWMSKIASGIGTFLSGMQQ]
MIC [3]: ≥ 100 µM
MIC [4]: ≥ 50 µM
MIC [5]: > 100 µM
MIC (Micrococcus luteus A270): 3 µM (≈ 6 µg/mL)
MIC [6]: > 100 µM
MIC [7]: 12.5 µM (≈ 25 µg/mL)
MIC (Escherichia coli K-12): 10 µM (≈ 20 µg/mL)
MIC [8]: 12.5 µM (≈ 25 µg/mL)
MIC (Bacillus megaterium KM): 3.12 µM (≈ 6.23 µg/mL)

SMILES: CC[C@H](C)[C@H](NC(=O)[C@H](Cc1ccccc1)NC(=O)[C@@H](NC(=O)[C@@H]1CCCN1C(=O)[C@H](CCCN=C(N)N)NC(=O)[C@H](CO)NC(=O)[C@@H]1CCCN1C(=O)[C@H](CCCCN)NC(=O)[C@H](CCCN=C(N)N)NC(=O)[C@H](CC(C)C)NC(=O)[C@@H]1CCCN1C(=O)[C@H](CCCN=C(N)N)NC(=O)[C@@H](NC(=O)[C@H](Cc1ccc(O)cc1)NC(=O)CNC(=O)[C@H](CO)NC(=O)[C@H](CO)NC(=O)[C@@H](N)Cc1cnc[nH]1)[C@@H](C)O)[C@@H](C)CC)C(=O)N[C@@H](CCCN=C(N)N)C(=O)N1CCC[C@H]1C(=O)N[C@H](C(=O)NCC(N)=O)[C@@H](C)CC [HSSGYTRPLRKPSRPIFIRPIG]
MIC [9]: 3.16 µM (≈ 8.02 µg/mL)
MIC (Candida glabrata): 7.07 µM (≈ 17.9 µg/mL)
MIC [10]: 1.79 µM (≈ 4.53 µg/mL)
MIC [11]: 3.16 µM (≈ 8.02 µg/mL)
MIC (Candida albicans A39): 17.7 µM (≈ 44.8 µg/mL)
MIC [12]: ≥ 50 µM
MIC (Bacillus sp. ATCC 14412): 4.42 µM (≈ 11.2 µg/mL)
MIC (Bacillus cereus): ≥ 50 µM
MIC (Yarrowia lipolytica): 3.16 µM (≈ 8.02 µg/mL)
MIC (Micrococcus luteus): 8.84 µM (≈ 22.4 µg/mL)
MIC [13]: 1.13 µM (≈ 2.87 µg/mL)
MIC (Candida krusei): 7.07 µM (≈ 17.9 µg/mL)
MIC (Escherichia coli): > 50 µM
MIC (Bacillus megaterium): ≥ 50 µM

The next lines start with the values.

MIC [14]: 10.6 µM (≈ 30 µg/mL)
MIC [15]: 0.7 µM (≈ 1.98 µg/mL)
MIC [5]: 2.82 µM (≈ 7.99 µg/mL)
MIC [16]: 7.11 µM (≈ 20.1 µg/mL)
MIC [17]: 10.9 µM (≈ 30.9 µg/mL)
MIC [18]: 14.2 µM (≈ 40.3 µg/mL)
MIC [2]: 5.52 µM (≈ 15.6 µg/mL)
MIC [19]: 2.23 µM (≈ 6.32 µg/mL)
MIC (Cryptococcus neoformans): 13.2 µM (≈ 37.4 µg/mL)
MIC (Candida krusei): 26.3 µM (≈ 74.5 µg/mL)
MIC [20]: 0.7 µM (≈ 1.98 µg/mL)
MIC [21]: 5.52 µM (≈ 15.6 µg/mL)
SMILES: CC[C@H](C)[C@H](N)C(=O)N[C@@H](Cc1c[nH]c2ccccc12)C(=O)N[C@@H](CC(C)C)C(=O)N[C@H](C(=O)N[C@@H](C)C(=O)N[C@@H](CC(C)C)C(=O)N[C@@H](CCCCN)C(=O)N[C@@H](Cc1ccccc1)C(=O)N[C@@H](CC(C)C)C(=O)NCC(=O)N[C@@H](CCCCN)C(=O)N[C@@H](CC(N)=O)C(=O)N[C@@H](CC(C)C)C(=O)NCC(=O)N[C@@H](CCCCN)C(=O)N[C@@H](Cc1cnc[nH]1)C(=O)N[C@@H](CC(C)C)C(=O)N[C@@H](C)C(=O)N[C@@H](CCCCN)C(=O)N[C@@H](CCC(N)=O)C(=O)N[C@@H](CCC(N)=O)C(=O)N[C@@H](CC(C)C)C(=O)N[C@@H](C)C(=O)N[C@@H](CCCCN)C(=O)N[C@@H](CC(C)C)C(N)=O)[C@@H](C)O [IWLTALKFLGKNLGKHLAKQQLAKL]

MIC [22]: 0.194 µM (≈ 0.5 µg/mL)
MIC [23]: 0.0971 µM (≈ 0.25 µg/mL)
MIC [24]: 0.971 µM (≈ 2.5 µg/mL)
MIC [25]: 0.971 µM (≈ 2.5 µg/mL)
MIC [26]: 16 µM (≈ 41.2 µg/mL)
MIC [27]: 1.94 µM (≈ 5 µg/mL)
MIC [28]: 3.88 µM (≈ 10 µg/mL)
SMILES: CC(C)C[C@H](NC(=O)[C@H](CCCCN)NC(=O)[C@H](CCCN=C(N)N)NC(=O)[C@H](CCCN=C(N)N)NC(=O)[C@@H](N)CCCCN)C(=O)N[C@@H](C)C(=O)N[C@@H](Cc1ccccc1)C(=O)N[C@@H](CCCN=C(N)N)C(=O)N[C@@H](CC(C)C)C(=O)N[C@@H](Cc1ccccc1)C(=O)N[C@@H](CCCN=C(N)N)C(=O)N[C@@H](CC(C)C)C(=O)N[C@@H](Cc1ccccc1)C(=O)N[C@@H](CC(C)C)C(=O)N[C@@H](CCCCN)C(=O)N[C@@H](CC(C)C)C(=O)N[C@H](C(=O)N[C@@H](CC(C)C)C(=O)N[C@@H](CCCCN)C(=O)N[C@@H](CCCCN)C(N)=O)C(C)C [KRRKLAFRLFRLFLKLVLKK]

MIC [29]: 0.313 µM (≈ 0.681 µg/mL)
MIC (Cupriavidus necator H16): 10 µM (≈ 21.8 µg/mL)
MIC (Escherichia coli JM109): 6.25 µM (≈ 13.6 µg/mL)
MIC [30]: 6.25 µM (≈ 13.6 µg/mL)
SMILES: CC[C@H](C)[C@H](NC(=O)[C@H](Cc1ccc(O)cc1)NC(=O)[C@@H](NC(=O)[C@@H]1CCCN1C(=O)[C@H](CCCN=C(N)N)NC(=O)[C@@H](NC(=O)[C@@H]1CCCN1C(=O)[C@@H](N)CCCN=C(N)N)C(C)C)C(C)C)C(=O)N1CCC[C@H]1C(=O)N[C@@H](CCC(N)=O)C(=O)N1CCC[C@H]1C(=O)N[C@@H](CCCN=C(N)N)C(=O)N1CCC[C@H]1C(=O)N1CCC[C@H]1C(=O)N[C@@H](Cc1cnc[nH]1)C(=O)N1CCC[C@H]1C(=O)N[C@@H](CCCN=C(N)N)C(=O)N[C@@H](CC(C)C)C(=O)O [RPVRPVYIPQPRPPHPRL]
